Source: PubChem BioAssay AID2060511 (Molecular Pharmacology Branch, DTP, NCI, 2025)

System: 422866-222-R5-J1-PDC spheroids with HUVEC/MSC, viability
Assay: Anticancer human tumor 422866-222-R5-J1-PDC patient-derived pancreatic adenocarcinoma cell line growth inhibition [GQUAD]
Details: for IC50: curve of first compound; for viability, T/C: stronger effect = lower value
Description: DNA G-quadruplex Stabilizer Agents in Combinations in Complex Spheroids
A high-throughput screen of multi-cell type tumor spheroids was designed to identify active combinations of DNA G-quadruplex stabilizer agents and targeted small molecules. Complex spheroids include a stromal component modeled by human endothelial cells (HUVEC) and fibroblasts modeled by human mesenchymal stem cells (MSCs). The concentration ranges selected for each drug and investigational agent were based upon clinically achievable concentrations if the clinical Cmax of the agent was known.
Compounds. The drugs and investigational agents: pidnarulex (CX-5461; NSC782164), APTO-253 (NSC789042), BRACO-19 (NSC847499), peposertib (NSC802822), ceralasertib (NSC780249), elimusertib (NSC800525), camonsertib (NSC841442), AZD-1390 (NSC803789), olaparib (NSC753686), talazoparib (NSC767125), ART-558 (NSC835418), sotorasib (NSC818433), MRTX-1133 (NSC836407), SN-38 (NSC673596), topotecan (NSC609699), etoposide (NSC141540), doxorubicin (NSC123127), gemcitabine (NSC613327), 5-fluorouracil (NSC19893), paclitaxel (NSC125973), vemurafenib (NSC761431), panobinostat (NSC761190), R-306465 (JNJ-16241199; NSC773264), adavosertib (NSC754352), TP-3654 (NSC805149), carboplatin (NSC241240), KSQ-4279 (NSC840948), and staurosporine (NSC755774) were obtained from the National Cancer Institute (NCI) Developmental Therapeutics Program Chemical Repository (34). The FDA-approved anticancer drug set is available from the NCI Developmental Therapeutics Program. […] The stock solutions were prepared in dimethyl sulfoxide (DMSO, Sigma-Aldrich, St. Louis, MO, cat. D2650) at 800-fold the tested concentration and stored at -70 degrees C prior to their use. All drugs and investigational agents were tested over a range starting from a high concentration at or near the clinical Cmax and decreasing in half-log increments. If the clinical Cmax for an agent had not been determined, the highest concentration tested was 10 microM.
2.3 Cell Culture. All cells were maintained in an incubator at 37 degrees C and 5% CO2 with 95% humidity. The PDC lines were cultured according to standard operating procedures established by the NCI PDMR. All PDCs were thawed and cultured in Matrigel-coated flasks prepared with a working solution of 1X Ham's F-12 nutrient mix, without supplementation (Invitrogen, cat. 11765054), 100 U/mL penicillin-streptomycin (Invitrogen, cat. 15140122), and 2.5% Matrigel (Corning Inc., cat. 354248) for the first three passages. The 857933-349-R-J2-PDC line was cultured in 6C/Colon 1B media, which includes advanced DMEM/F-12 (Thermo Fisher Scientific, cat. 12634028), 10 mM HEPES (Thermo Fisher Scientific, cat. 15630080), 1X GlutaMAX supplement (Thermo Fisher Scientific, cat. 35050061), 0.1 mg/mL primocin (InvivoGen, cat. ant-pm-2), 10% defined fetal bovine serum, heat inactivated (HyClone Laboratories Inc., cat. SH30070.03HI), 50% L-WRN conditioned media (ATCC, cat. CRL-3276), 1.25 mM N-Acetyl-L-cysteine (Sigma-Aldrich, cat. A9165), 10 mM nicotinamide (Sigma-Aldrich, cat. N0636), 1X B-27 supplement (Thermo Fisher Scientific, cat. 17504044), 1X N-2 supplement (Thermo Fisher Scientific, cat. 17502048), 10 microM Y-27632 dihydrochloride (Tocris Bioscience, cat. 1254), and 50 ng/mL human EGF recombinant protein (Thermo Fisher Scientific, cat. PHG0311). The 485176-168-R4-J1-PDC line was cultured in Panc media, which includes all 6C/Colon 1B media components plus 100 ng/mL human FGF-10 (Thermo Fisher Scientific, cat. 100-26), 500 nM SB-431542 (Selleckchem, cat. S1067), and gastrin (Tocris, cat. 3006).
[…]

[1] = second compound 0.0316 µM, first compound 0.0316 µM
[2] = second compound 0.0316 µM, first compound 0.1 µM
[3] = second compound 0.0316 µM, first compound 0.316 µM
[4] = second compound 0.0316 µM, first compound 1 µM
[5] = second compound 0.0316 µM, first compound 3.16 µM
[6] = second compound 0.0316 µM, first compound 10 µM
[7] = second compound 0.1 µM, first compound 0.0316 µM
[8] = second compound 0.1 µM, first compound 0.1 µM
[9] = second compound 0.1 µM, first compound 0.316 µM
[10] = second compound 0.1 µM, first compound 1 µM
[11] = second compound 0.1 µM, first compound 3.16 µM
[12] = second compound 0.1 µM, first compound 10 µM
[13] = second compound 0.316 µM, first compound 0.0316 µM
[14] = second compound 0.316 µM, first compound 0.1 µM
[15] = second compound 0.316 µM, first compound 0.316 µM
[16] = second compound 0.316 µM, first compound 1 µM
[17] = second compound 0.316 µM, first compound 3.16 µM
[18] = second compound 0.316 µM, first compound 10 µM
[19] = second compound 1 µM, first compound 0.0316 µM
[20] = second compound 1 µM, first compound 0.1 µM
[21] = second compound 1 µM, first compound 0.316 µM
[22] = second compound 1 µM, first compound 1 µM
[23] = second compound 1 µM, first compound 3.16 µM
[24] = second compound 1 µM, first compound 10 µM
[25] = second compound 3.16 µM, first compound 0.0316 µM
[26] = second compound 3.16 µM, first compound 0.1 µM
[27] = second compound 3.16 µM, first compound 0.316 µM
[28] = second compound 3.16 µM, first compound 1 µM
[29] = second compound 3.16 µM, first compound 3.16 µM
[30] = second compound 3.16 µM, first compound 10 µM
[31] = second compound 10 µM, first compound 0.0316 µM
[32] = second compound 10 µM, first compound 0.1 µM
[33] = second compound 10 µM, first compound 0.316 µM
[34] = second compound 10 µM, first compound 1 µM
[35] = second compound 10 µM, first compound 3.16 µM
[36] = second compound 10 µM, first compound 10 µM
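Further: spheroids exposed to compounds for seven days before reading.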
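Wherever viability, T/C is given: percent viability relative to DMSO vehicle control taken as 100%.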

## CC(C)(O)C1CCC(Nc2ccc3ncc(-c4cccc(C(F)(F)F)c4)n3n2)CC1 (centres undefined) + Cc1[nH]c2ccc(F)cc2c1-c1nc2c3cccnc3c3ncccc3c2[nH]1
Second compound 0.0316 µM
  IC50: 1110 nM
Second compound 0.1 µM
  IC50: 833 nM
Second compound 0.316 µM
  IC50: 1120 nM
Second compound 1 µM
  IC50: 1490 nM
Second compound 3.16 µM
  IC50: 421 nM
Second compound 10 µM
  IC50: 531 nM
[1]
  viability, T/C: 99.4%
[2]
  viability, T/C: 79.8%
[3]
  viability, T/C: 78.5%
[4]
  viability, T/C: 50.7%
[5]
  viability, T/C: 31.8%
[6]
  viability, T/C: 26.9%
[7]
  viability, T/C: 118%
[8]
  viability, T/C: 103%
[9]
  viability, T/C: 64.7%
[10]
  viability, T/C: 50.9%
[11]
  viability, T/C: 34.1%
[12]
  viability, T/C: 29.8%
[13]
  viability, T/C: 103%
[14]
  viability, T/C: 99.2%
[15]
  viability, T/C: 80.3%
[16]
  viability, T/C: 51.1%
[17]
  viability, T/C: 36.5%
[18]
  viability, T/C: 29.5%
[19]
  viability, T/C: 87.1%
[20]
  viability, T/C: 88.4%
[21]
  viability, T/C: 77.6%
[22]
  viability, T/C: 55.4%
[23]
  viability, T/C: 38.9%
[24]
  viability, T/C: 27.1%
[25]
  viability, T/C: 56%
[26]
  viability, T/C: 63.5%
[27]
  viability, T/C: 52.4%
[28]
  viability, T/C: 39.3%
[29]
  viability, T/C: 37.8%
[30]
  viability, T/C: 29%
[31]
  viability, T/C: 66.3%
[32]
  viability, T/C: 68.3%
[33]
  viability, T/C: 62%
[34]
  viability, T/C: 35.1%
[35]
  viability, T/C: 33.9%
[36]
  viability, T/C: 26%

## O=C(c1cc(Cc2n[nH]c(=O)c3ccccc23)ccc1F)N1CCN(C(=O)C2CC2)CC1 + CN(C)c1ccc(Nc2c3ccc(NC(=O)CCN4CCCC4)cc3nc3cc(NC(=O)CCN4CCCC4)ccc23)cc1
Second compound 0.0316 µM
  IC50: > 10000 nM
Second compound 0.1 µM
  IC50: > 10000 nM
Second compound 0.316 µM
  IC50: > 10000 nM
Second compound 1 µM
  IC50: > 10000 nM
Second compound 3.16 µM
  IC50: > 10000 nM
Second compound 10 µM
  IC50: > 10000 nM
[1]
  viability, T/C: 108%
[2]
  viability, T/C: 95.8%
[3]
  viability, T/C: 96.3%
[4]
  viability, T/C: 99.7%
[5]
  viability, T/C: 75.7%
[6]
  viability, T/C: 70.1%
[7]
  viability, T/C: 90.3%
[8]
  viability, T/C: 95.3%
[9]
  viability, T/C: 84.9%
[10]
  viability, T/C: 83%
[11]
  viability, T/C: 93.2%
[12]
  viability, T/C: 67.5%
[13]
  viability, T/C: 86.4%
[14]
  viability, T/C: 107%
[15]
  viability, T/C: 79.7%
[16]
  viability, T/C: 83.3%
[17]
  viability, T/C: 79.8%
[18]
  viability, T/C: 70.4%
[19]
  viability, T/C: 80%
[20]
  viability, T/C: 79.3%
[21]
  viability, T/C: 78.3%
[22]
  viability, T/C: 77.4%
[23]
  viability, T/C: 74.5%
[24]
  viability, T/C: 67.5%
[25]
  viability, T/C: 87%
[26]
  viability, T/C: 92.3%
[27]
  viability, T/C: 86.5%
[28]
  viability, T/C: 85.7%
[29]
  viability, T/C: 85%
[30]
  viability, T/C: 80.6%
[31]
  viability, T/C: 81.8%
[32]
  viability, T/C: 83.6%
[33]
  viability, T/C: 87.4%
[34]
  viability, T/C: 79.5%
[35]
  viability, T/C: 83.6%
[36]
  viability, T/C: 79.9%
